The record followed here is patent US9481676B2, “Azepino[4,5-B]indoles and methods of use” (Medivation Technologies, Inc., priority 2008, dated 2016).

The target in assay [1] is T1, human recombinant histamine H1 receptor (Homo sapiens, UniProt P35367).
T1 construct: expressed in transfected cells; host or cells: CHO cells
In words: Histamine H1 radioligand binding ([3H]Pyrilamine). The note with it: compound at 1 μM; read-out: Histamine Binding (1 μM) H1, percent inhibition of specific binding. The method in brief:
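Membranes from CHO cells expressing the receptor were incubated with compound and 1.2 nM [3H]pyrilamine for 180 min at 25 °C in 50 mM Tris-HCl pH 7.4 with MgCl2, NaCl and sucrose; 1 μM pyrilamine defined non-specific binding. Filter-bound radioactivity was counted.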

The target in assay [2] is T2, human recombinant histamine H2 receptor (Homo sapiens, UniProt P25021).
T2 construct: expressed in transfected cells; host or cells: CHO-K1 cells
The assay can be described thus: Histamine H2 radioligand binding ([125I]Aminopotentidine). The settings on record: compound at 1 μM; read-out: Histamine Binding (1 μM) H2, percent inhibition of specific binding. An outline of the steps:
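Membranes from CHO-K1 cells expressing recombinant human H2 receptor, in 50 mM phosphate buffer pH 7.4, incubated with 0.1 nM [125I]aminopotentidine for 120 min at 25 °C; nonspecific binding defined with 3 μM tiotidine.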

Assay [3] has as its target T3, human recombinant adrenergic α2A receptor (Homo sapiens, UniProt P08913).
T3 construct: expressed in transfected cells; host or cells: insect Sf9 cells
T3 sequence (P08913 1-465): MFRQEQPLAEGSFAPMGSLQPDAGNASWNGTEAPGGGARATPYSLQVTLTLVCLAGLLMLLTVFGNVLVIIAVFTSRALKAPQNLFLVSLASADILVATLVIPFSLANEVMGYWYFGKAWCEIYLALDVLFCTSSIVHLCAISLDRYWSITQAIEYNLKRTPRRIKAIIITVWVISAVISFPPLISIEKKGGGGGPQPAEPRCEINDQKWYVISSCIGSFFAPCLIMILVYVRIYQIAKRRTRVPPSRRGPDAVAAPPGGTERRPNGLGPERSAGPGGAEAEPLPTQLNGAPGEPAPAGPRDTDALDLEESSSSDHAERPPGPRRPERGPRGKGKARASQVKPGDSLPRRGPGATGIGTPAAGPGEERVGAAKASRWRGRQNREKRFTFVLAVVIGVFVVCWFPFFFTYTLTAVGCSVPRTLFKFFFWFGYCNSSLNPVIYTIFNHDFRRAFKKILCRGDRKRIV
The assay can be described thus: Adrenergic alpha2A radioligand binding ([3H]MK-912). The settings on record: compound at 1 μM; read-out: Adrenergic (1 μM) α2A, percent inhibition of specific binding. The method in brief: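 Membranes of Sf9 cells expressing human recombinant α2A receptor were incubated with compound and 1 nM [3H]MK-912 for 60 min at 25 °C in 50 mM Tris-HCl pH 7.4, 12.5 mM MgCl2, 2 mM EDTA. Nonspecific binding: 10 μM WB-4101.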

Assay [4] deals with T4, human recombinant dopamine D2L receptor (Homo sapiens, UniProt P14416).
T4 construct: expressed in transfected cells; host or cells: CHO cells
The assay can be described thus: Dopamine D2L radioligand binding ([3H]Spiperone). The settings on record: compound at 1 μM; read-out: Dopamine (1 μM) D2L, percent inhibition of specific binding. An outline of the steps:
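Human recombinant D2L receptor from CHO cells, in Tris-HCl buffer pH 7.4 with ascorbic acid, BSA and 150 mM NaCl; compounds at 1 μM or lower (1% DMSO) incubated with 0.16 nM [3H]spiperone, 120 min, 25° C. Nonspecific binding by 10 μM haloperidol; filter counting; % inhibition of specific binding.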

Assay [5] concerns the target T5, human recombinant serotonin (5-Hydroxytryptamine) 5-HT6 receptor (Homo sapiens, UniProt P50406).
T5 construct: expressed in transfected cells; host or cells: human HeLa cells
The assay can be described thus: Serotonin 5-HT6 radioligand binding ([3H]LSD). The note with it: compound at 1 μM; read-out: Serotonin (1 μM) 5-HT6, percent inhibition of specific binding. An outline of the steps: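 Human recombinant 5-HT6 receptor from HeLa cells incubated with 1.5 nM [3H]LSD for 120 min at 37° C in 50 mM Tris-HCl pH 7.4, 150 mM NaCl, 2 mM ascorbic acid, 0.001% BSA. Nonspecific binding defined with 5 μM serotonin; bound ligand counted after filtration.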

T5 sequence (P50406 whole entry): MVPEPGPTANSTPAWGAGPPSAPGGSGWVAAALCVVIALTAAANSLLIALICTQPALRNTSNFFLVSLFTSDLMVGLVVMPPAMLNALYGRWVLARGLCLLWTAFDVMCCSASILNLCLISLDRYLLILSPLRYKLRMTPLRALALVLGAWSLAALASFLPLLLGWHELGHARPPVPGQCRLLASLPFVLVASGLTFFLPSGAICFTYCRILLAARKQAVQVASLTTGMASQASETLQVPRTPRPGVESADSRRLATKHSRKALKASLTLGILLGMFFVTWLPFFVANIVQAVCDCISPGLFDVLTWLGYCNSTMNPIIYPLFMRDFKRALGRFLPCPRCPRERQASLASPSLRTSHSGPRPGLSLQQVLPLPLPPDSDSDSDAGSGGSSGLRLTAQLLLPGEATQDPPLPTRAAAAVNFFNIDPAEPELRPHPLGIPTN
T4 sequence (P14416 whole entry): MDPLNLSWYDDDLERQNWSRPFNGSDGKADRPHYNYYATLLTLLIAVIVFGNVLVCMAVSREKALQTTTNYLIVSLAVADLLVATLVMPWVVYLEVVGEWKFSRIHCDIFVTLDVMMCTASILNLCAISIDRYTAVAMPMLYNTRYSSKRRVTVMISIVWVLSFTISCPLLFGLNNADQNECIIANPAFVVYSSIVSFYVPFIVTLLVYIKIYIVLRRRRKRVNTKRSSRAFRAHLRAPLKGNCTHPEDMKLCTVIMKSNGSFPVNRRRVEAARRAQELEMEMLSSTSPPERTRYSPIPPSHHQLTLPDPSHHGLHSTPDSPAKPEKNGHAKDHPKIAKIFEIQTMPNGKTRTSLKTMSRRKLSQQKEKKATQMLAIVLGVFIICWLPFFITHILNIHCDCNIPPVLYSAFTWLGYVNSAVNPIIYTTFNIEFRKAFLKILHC
T1 sequence (P35367 whole entry): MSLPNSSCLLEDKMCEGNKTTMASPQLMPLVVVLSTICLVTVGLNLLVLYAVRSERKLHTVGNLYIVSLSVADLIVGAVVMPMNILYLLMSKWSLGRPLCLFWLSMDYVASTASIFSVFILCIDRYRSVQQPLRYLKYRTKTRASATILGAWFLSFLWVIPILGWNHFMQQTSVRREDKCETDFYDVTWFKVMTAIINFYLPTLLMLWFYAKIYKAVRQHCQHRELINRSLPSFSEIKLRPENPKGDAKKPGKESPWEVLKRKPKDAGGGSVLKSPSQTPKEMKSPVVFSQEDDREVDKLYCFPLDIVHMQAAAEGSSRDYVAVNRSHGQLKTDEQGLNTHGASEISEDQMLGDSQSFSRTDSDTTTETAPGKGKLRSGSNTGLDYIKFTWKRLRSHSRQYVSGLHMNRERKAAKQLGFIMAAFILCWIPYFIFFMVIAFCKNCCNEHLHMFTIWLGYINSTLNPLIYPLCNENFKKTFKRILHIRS
T2 sequence (P25021 whole entry): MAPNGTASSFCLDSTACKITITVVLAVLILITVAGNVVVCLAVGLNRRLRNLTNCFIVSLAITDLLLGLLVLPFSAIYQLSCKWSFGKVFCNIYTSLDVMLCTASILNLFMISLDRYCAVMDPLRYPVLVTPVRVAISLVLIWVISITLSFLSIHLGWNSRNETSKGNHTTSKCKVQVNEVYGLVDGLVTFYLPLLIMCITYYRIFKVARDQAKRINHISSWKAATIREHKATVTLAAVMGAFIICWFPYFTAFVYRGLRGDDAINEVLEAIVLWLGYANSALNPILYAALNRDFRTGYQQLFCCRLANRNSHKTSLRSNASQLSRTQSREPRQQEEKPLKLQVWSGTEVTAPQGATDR

In general, inhibition refers to the change of the read-out against control, counted positive when it falls. `Cc1ccc2c(c1)c1c(n2CC(=O)N2CCCCC2)CCN(C)CC1` [Compound No. 32, 2-(2,3,4,5-tetrahydro-3,9-dimethylazepino[4,5-b]indol-6(1H)-yl)-1-(piperidin-1-yl)ethanone]: the inhibition at 1 µM in assay [1] was 11%; in assay [2], -5%; in assay [3], 39%; in assay [4], -1%; in assay [5] it was 4%.

For the compound `CN1CCc2c(n(CC(O)c3ccc(Cl)cc3)c3ccc(Cl)cc23)CC1` (stereo not drawn) [Compound No. 16, 2-(9-chloro-2,3,4,5-tetrahydro-3-methylazepino[4,5-b]indol-6(1H)-yl)-1-(4-chlorophenyl)ethanol], the inhibition at 1 µM in assay [1] came to 103%; in assay [2], 92%; in assay [3], 105%; in assay [4] it was 37%; in assay [5], 78%.

Regarding `COc1ccc(C(O)Cn2c3c(c4cc(C)ccc42)CCN(C)CC3)cc1` (stereo not drawn) [Compound No. 48, 2-(2,3,4,5-tetrahydro-3,9-dimethylazepino[4,5-b]indol-6(1H)-yl)-1-(4-methoxyphenyl) ethanol], the inhibition at 1 µM was found to be 98% in assay [1]; 56% in assay [2]; 98% in assay [3]; 31% in assay [4]; 73% in assay [5].

As to `Cc1ccc2c(c1)c1c(n2CC(O)c2ccccc2F)CCN(C)CC1` (stereo not drawn) [Compound No. 41, 1-(2-fluorophenyl)-2-(2,3,4,5-tetrahydro-3,9-dimethylazepino[4,5-b]indol-6(1H)-yl)ethanol], the inhibition at 1 µM worked out at 100% in assay [1]; 52% in assay [2]; 95% in assay [3]; 34% in assay [4]; 101% in assay [5].

Take `Cc1ccc2c(c1)c1c(n2/C=C/c2ccc(F)cc2)CCN(C)CC1` [Compound No. 39, 6-(4-fluorostyryl)-1,2,3,4,5,6-hexahydro-3,9-dimethylazepino[4,5-b]indole]: the inhibition at 1 µM in assay [1] came out at 98%; in assay [2], 91%; in assay [3], 98%; in assay [4], 66%; in assay [5], 103%.

Regarding `Cc1ccc2c(c1)c1c(n2CC(C)(O)c2ccc(Cl)cc2)CCN(C)CC1` (stereo not drawn) [Compound No. 15, 2-(4-chlorophenyl)-1-(2,3,4,5-tetrahydro-3,9-dimethylazepino[4,5-b]indol-6(1H)-yl)propan-2-ol], the inhibition at 1 µM in assay [1] came to 100%; in assay [2], 92%; in assay [3], 93%; in assay [4], 45%; in assay [5], 82%.

For `CN1CCc2c(n(C#Cc3ccc(Cl)cc3)c3ccc(Cl)cc23)CC1` [Compound No. 282, 9-chloro-6-((4-chlorophenyl)ethynyl)-3-methyl-1,2,3,4,5,6-hexahydroazepino[4,5-b]indole], the inhibition at 1 µM in assay [1] came to 99%; in assay [2], 87%; in assay [3] it was 95%; in assay [4] it was 1%; in assay [5], 71%.

For the compound `COc1ccc(C(O)Cn2c3c(c4cc(Cl)ccc42)CCN(C)CC3)c(F)c1` (stereo not drawn) [Compound No. 49, 2-(9-chloro-2,3,4,5-tetrahydro-3-methylazepino[4,5-b]indol-6(1H)-yl)-1-(2-fluoro-4-methoxyphenyl) ethanol], the inhibition at 1 µM amounted to 94% in assay [1]; 65% in assay [2]; 96% in assay [3]; 32% in assay [4]; 88% in assay [5].

Regarding `COc1ccc(C(O)Cn2c3c(c4cc(Cl)ccc42)CCN(C)CC3)cc1` (stereo not drawn) [Compound No. 47, 2-(9-chloro-2,3,4,5-tetrahydro-3-methylazepino[4,5-b]indol-6(1H)-yl)-1-(4-methoxyphenyl)ethanol], the inhibition at 1 µM came to 100% in assay [1]; 70% in assay [2]; 97% in assay [3]; 45% in assay [4]; 77% in assay [5].
